Measurements published in patent publication US12649750B2, “Macrocyclic compounds, compositions, and methods of using thereof” (Sionna Therapeutics Inc., priority 2022, dated 2026).

Experiments:
NBD1 = target: T1, NBD1 (Homo sapiens, UniProt P13569); assay: Aggregation analysis using differential static light scattering (DSLS), thermal stability of NBD1 (ΔTagg); format: binding; conditions: ΔTagg versus DMSO control, NBD1 0.2 mg/ml
T1 construct: Purified recombinant NBD1 was produced using previously described methods; made in house
Summary of the method: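 Read-out is ΔTagg: the aggregation temperature, taken at the inflection of the light-scattering curve, less the average of DMSO control wells. Recombinant NBD1 (0.2 mg/ml, pH7.6 buffer containing 2 mM ATP) with test compound was heated at 1° C. per minute up to 70° C.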

CFTR = target: T2, CFTR (Homo sapiens, UniProt P13569, DEL508-508); assay: TECC24 AUC fold over DMSO @10 μM, CFTR-mediated transepithelial chloride transport in CF-HBE cells; format: cell-based; conditions: test agent AUC divided by DMSO vehicle AUC, primary CF-HBE cells, ΔF508 homozygous donor, 48 hours incubation
T2 construct: Primary human bronchial epithelial cells from a ΔF508 homozygous CF donor; host or cells: primary human bronchial epithelial cells (CF-HBE), ΔF508 homozygous donor
Summary of the method: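 ΔF508-homozygous primary bronchial epithelial cells incubated 48 h at 36.5° C with compound (10 μM) in IL-13-containing medium, then TECC24 current-clamp recording in pH 7.4 Hepes saline with benzamil 10 μM, forskolin 10 μM, then CFTR inhibitor-172 20 μM. Equivalent Cl− current AUC between forskolin and inhibitor, expressed as fold over DMSO.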

T2 sequence (P13569 with tags, fused parts or gaps DEL508-508): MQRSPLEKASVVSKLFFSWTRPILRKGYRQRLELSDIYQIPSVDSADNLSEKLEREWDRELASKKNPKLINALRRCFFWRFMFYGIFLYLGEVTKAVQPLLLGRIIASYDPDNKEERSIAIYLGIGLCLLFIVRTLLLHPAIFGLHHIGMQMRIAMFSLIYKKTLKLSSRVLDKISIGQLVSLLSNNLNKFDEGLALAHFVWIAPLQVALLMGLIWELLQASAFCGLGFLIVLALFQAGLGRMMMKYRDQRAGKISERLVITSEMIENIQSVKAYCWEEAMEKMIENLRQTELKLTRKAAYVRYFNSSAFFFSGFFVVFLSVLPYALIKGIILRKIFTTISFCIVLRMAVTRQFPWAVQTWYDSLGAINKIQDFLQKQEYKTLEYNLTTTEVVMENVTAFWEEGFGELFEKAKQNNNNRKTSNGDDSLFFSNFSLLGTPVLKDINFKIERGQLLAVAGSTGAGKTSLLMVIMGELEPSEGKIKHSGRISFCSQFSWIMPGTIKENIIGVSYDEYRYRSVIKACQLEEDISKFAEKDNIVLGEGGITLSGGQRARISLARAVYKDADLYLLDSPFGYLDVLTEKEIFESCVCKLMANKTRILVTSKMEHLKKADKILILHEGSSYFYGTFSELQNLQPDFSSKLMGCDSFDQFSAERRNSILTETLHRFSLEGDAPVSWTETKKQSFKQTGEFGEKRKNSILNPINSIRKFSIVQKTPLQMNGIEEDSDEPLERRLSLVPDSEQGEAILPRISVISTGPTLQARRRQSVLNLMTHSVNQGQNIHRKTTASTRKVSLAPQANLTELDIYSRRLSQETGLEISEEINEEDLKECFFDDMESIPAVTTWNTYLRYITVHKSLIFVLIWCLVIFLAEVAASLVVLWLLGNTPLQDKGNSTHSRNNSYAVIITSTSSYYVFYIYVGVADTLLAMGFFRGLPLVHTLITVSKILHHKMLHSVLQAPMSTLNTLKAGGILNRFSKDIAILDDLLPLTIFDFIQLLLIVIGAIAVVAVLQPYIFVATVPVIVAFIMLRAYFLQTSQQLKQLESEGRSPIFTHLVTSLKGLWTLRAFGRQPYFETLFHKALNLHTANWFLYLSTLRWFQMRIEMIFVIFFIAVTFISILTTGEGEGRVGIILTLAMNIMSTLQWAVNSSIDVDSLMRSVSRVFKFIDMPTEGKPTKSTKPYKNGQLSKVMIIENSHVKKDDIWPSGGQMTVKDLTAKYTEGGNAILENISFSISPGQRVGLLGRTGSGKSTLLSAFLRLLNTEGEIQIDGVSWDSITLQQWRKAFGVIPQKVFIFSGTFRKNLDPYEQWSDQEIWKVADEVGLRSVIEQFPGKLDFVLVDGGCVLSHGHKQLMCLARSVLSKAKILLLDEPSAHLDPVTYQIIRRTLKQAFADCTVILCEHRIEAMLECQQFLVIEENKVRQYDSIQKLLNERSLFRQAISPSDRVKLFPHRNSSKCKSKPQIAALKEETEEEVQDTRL
T1 sequence (P13569 423-646 limits assumed): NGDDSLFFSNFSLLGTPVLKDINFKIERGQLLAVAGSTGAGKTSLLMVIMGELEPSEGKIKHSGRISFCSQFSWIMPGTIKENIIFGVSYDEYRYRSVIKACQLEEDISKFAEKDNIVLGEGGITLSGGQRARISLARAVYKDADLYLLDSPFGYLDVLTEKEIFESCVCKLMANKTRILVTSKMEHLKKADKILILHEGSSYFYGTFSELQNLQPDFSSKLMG

Row | Compound | DSLS 3D (100 μM ΔT) (NBD1) | TECC (AUC, 10 μM) (CFTR)
1 | COCC(Cc1cccc([C@@]2(C)CCCC(C)(C)CS(=O)(=O)CCc3c(c(F)cc4[nH]ccc34)Oc3ccnc(c3)-c3nc2nn3C)c1)C(=O)O (single isomer, unassigned) [Compound 285] | C (a value greater than 10 °C and less than or equal to 25 °C is marked “C”) | C (a value between 20 and 80 is marked “C”)
2 | Cn1nc2nc1-c1cc(ccn1)[S+]([O-])c1c(F)c(F)c3[nH]ccc3c1CCS(=O)(=O)CC(C)(C)CCC[C@]2(C)c1cccc(CC(O)CO)c1 (stereo in doubt) [Compound 292, (2R)-3-[3-[(6R)-21,22-difluoro-3,6,10,10-tetramethyl-12,12,24-trioxo-12λ6,24λ4-dithia-3,4,19,28,30-pentazapentacyclo[23.3.1.12,5.015,23.016,20]triaconta-1(29),2(30),4,15,17,20,22,25,27-nonaen-6-yl]phenyl]propane-1,2-diol] | C (a value greater than 10 °C and less than or equal to 25 °C is marked “C”) | C (a value between 20 and 80 is marked “C”)
3 | Cn1nc2nc1-c1cc(ccc1F)Oc1c(F)cc3[nH]ccc3c1CCS(=O)(=O)CC(C)(C)CCCC2(C)c1cccc(CC(=O)O)c1 (stereo not drawn) [Compound 3, 2-[3-(22,28-Difluoro-3,6,10,10-tetramethyl-12,12-dioxo-24-oxa-12λ^6-thia-3,4,19,30-tetrazapentacyclo[23.3.1.1^2,5.0^15,23.0^16,20]triaconta-1(29),2(30),4,15,17,20,22,25,27-nonaen-6-yl)phenyl]acetic Acid] | C (a value greater than 10 °C and less than or equal to 25 °C is marked “C”) | B (a value between 12-20 is marked “B”)
4 | Cn1nc2nc1-c1cc(ccc1F)Oc1c(F)cc3[nH]ccc3c1CCS(=O)(=O)CC(C)(C)CCCC2(C)c1cccc(CC2(C(=O)O)CC2)c1 (stereo not drawn) [Compound 14, 1-[[3-(22,28-difluoro-3,6,10,10-tetramethyl-12,12-dioxo-24-oxa-12lambda6-thia-3,4,19,30-tetrazapentacyclo[23.3.1.12,5.015,23.016,20]triaconta-1(29),2(30),4,15,17,20,22,25,27-nonaen-6-yl)phenyl]methyl]cyclopropanecarboxylic Acid] | C (a value greater than 10 °C and less than or equal to 25 °C is marked “C”) | B (a value between 12-20 is marked “B”)
5 | CC(Oc1cccc(C2(C)CCCC(C)(C)CS(=O)(=O)CCc3c(c(F)cc4[nH]ccc34)Oc3ccc(F)c(c3)-c3nc2nn3C)c1)C(=O)O (stereo not drawn) [Compound 19B, 2-[3-[22,28-difluoro-3,6,10,10-tetramethyl-12,12-dioxo-24-oxa-12 6-thia-3,4,19,30-tetrazapentacyclo[23.3.1.12,5.015,23.016,20]triaconta-1(29),2(30),4,15,17,20,22,25,27-nonaen-6-yl]phenoxy]propanoic Acid] | A (an ΔTagg value less than or equal to 5 °C is marked “A”) | A (a TECC value less than 12 is marked “A”)
6 | CC1(C)CCCC(c2cccc(CCC(=O)O)c2)n2ccc(n2)-c2cccc(c2)Oc2c(F)cc3[nH]ccc3c2CCS(=O)(=O)C1 (stereo not drawn) [Compound 23, 3-[3-(22-Fluoro-10,10-dimethyl-12,12-dioxo-24-oxa-12lambda6-thia-5,19,30-triazapentacyclo[23.3.1.12,5.015,23.016,20]triaconta-1(29),2(30),3,15,17,20,22,25,27-nonaen-6-yl)phenyl]propanoic Acid] | C (a value greater than 10 °C and less than or equal to 25 °C is marked “C”) | B (a value between 12-20 is marked “B”)
7 | CC(Cc1cccc(C2CCCC(C)(C)CS(=O)(=O)CCc3c(c(F)cc4[nH]ccc34)Oc3cccc(c3)-c3ccn2n3)c1)C(=O)O (stereo not drawn) [Compound 25, 3-[3-(22-Fluoro-10,10-dimethyl-12,12-dioxo-24-oxa-12lambda6-thia-5,19,30-triazapentacyclo[23.3.1.12,5.015,23.016,20]triaconta-1(29),2(30),3,15,17,20,22,25,27-nonaen-6-yl)phenyl]-2-methyl-propanoic Acid] | C (a value greater than 10 °C and less than or equal to 25 °C is marked “C”) | A (a TECC value less than 12 is marked “A”)
8 | CC1(C)CCCC(c2cccc(CC(=O)O)c2)n2ccc(n2)-c2cc(ccc2F)Oc2c(F)cc3[nH]ccc3c2CCS(=O)(=O)C1 (stereo not drawn) [Compound 26, 2-[3-(22,28-Difluoro-10,10-dimethyl-12,12-dioxo-24-oxa-12lambda6-thia-5,19,30-triazapentacyclo[23.3.1.12,5.015,23.016,20]triaconta-1(29),2(30),3,15,17,20,22,25,27-nonaen-6-yl)phenyl]acetic Acid] | C (a value greater than 10 °C and less than or equal to 25 °C is marked “C”) | C (a value between 20 and 80 is marked “C”)
9 | CC1(c2cccc(CCC(=O)O)c2)CCCCCS(=O)(=O)CCc2c(c(F)cc3[nH]ccc23)Oc2ccc(F)c(c2)-c2ncc1[nH]2 (stereo not drawn) [Compound 37, 3-[3-(22,28-Difluoro-6-methyl-12,12-dioxo-24-oxa-12λ6-thia-3,19,30-triazapentacyclo[23.3.1.12,5.015,23.016,20]triaconta-1(29),2,4,15,17,20,22,25,27-nonaen-6-yl)phenyl]propanoic Acid] | C (a value greater than 10 °C and less than or equal to 25 °C is marked “C”) | A (a TECC value less than 12 is marked “A”)
10 | O=C(O)CCc1cccc(C2CCS(=O)(=O)CCc3cn(nn3)Cc3c(c(F)cc4[nH]ccc34)Oc3ccc(F)c(c3)-c3ncc2[nH]3)c1F (stereo not drawn) [Compound 40, 3-[3-(24,30-Difluoro-9,9-dioxo-26-oxa-9lambda6-thia-3,13,14,15,21,33-hexazahexacyclo[25.3.1.12,5.112,15.017,25.018,22]tritriaconta-1(31),2,4,12(32),13,17,19,22,24,27,29-undecaen-6-yl)-2-fluoro-phenyl]propanoic Acid] | C (a value greater than 10 °C and less than or equal to 25 °C is marked “C”) | B (a value between 12-20 is marked “B”)
11 | O=S1(=O)CCc2cn(nn2)Cc2c(c(F)cc3[nH]ccc23)Oc2ccc(F)c(c2)-c2ncc([nH]2)C(c2ccccc2F)CC1 (stereo not drawn) [Compound 41, 24,30-Difluoro-6-(2-fluorophenyl)-26-oxa-9λ6-thia-3,13,14,15,21,33-hexazahexacyclo[25.3.1.12,5.112,15.017,25.018,22]tritriaconta-1(31),2,4,12(32),13,17,19,22,24,27,29-undecaene 9,9-dioxide] | C (a value greater than 10 °C and less than or equal to 25 °C is marked “C”) | A (a TECC value less than 12 is marked “A”)
12 | CC1CCC(C)(c2cccc(CCC(=O)O)c2)c2cnc([nH]2)-c2cc(ccc2F)Oc2c(F)cc3[nH]ccc3c2CCS(=O)(=O)CC1 (stereo not drawn) [Compound 42, 3-[3-(22,28-Difluoro-6,9-dimethyl-12,12-dioxo-24-oxa-12lambda6-thia-3,19,30-triazapentacyclo[23.3.1.12,5.015,23.016,20]triaconta-1(29),2,4,15,17,20,22,25,27-nonaen-6-yl)phenyl]propanoic Acid] | C (a value greater than 10 °C and less than or equal to 25 °C is marked “C”) | B (a value between 12-20 is marked “B”)
13 | CC1(C)CCCC(C)(c2cccc(CCC(=O)O)c2)c2coc(n2)-c2cc(ccc2F)Oc2c(F)cc3[nH]ccc3c2CCS(=O)(=O)C1 (stereo not drawn) [Compound 44, 3-[3-(22,28-Difluoro-6,10,10-trimethyl-12,12-dioxo-3,24-dioxa-12lambda6-thia-19,30-diazapentacyclo[23.3.1.12,5.015,23.016,20]triaconta-1(29),2(30),4,15,17,20,22,25,27-nonaen-6-yl)phenyl]propanoic Acid] | C (a value greater than 10 °C and less than or equal to 25 °C is marked “C”) | A (a TECC value less than 12 is marked “A”)
14 | CC1(C)CSCc2c(c(F)cc3[nH]ccc23)Oc2ccc(F)c(c2)-c2nc(c[nH]2)C(C)(c2cccc(CCC(=O)O)c2)CCCO1 (stereo not drawn) [Compound 46, 3-[3-(22,28-difluoro-6,11,11-trimethyl-10,24-dioxa-13-thia-3,19,30-triazapentacyclo[23.3.1.12,5.015,23.016,20]triaconta-1(29),2(30),4,15,17,20,22,25,27-nonaen-6-yl)phenyl]propanoic Acid] | C (a value greater than 10 °C and less than or equal to 25 °C is marked “C”) | C (a value between 20 and 80 is marked “C”)
15 | CC1(C)C[S+]([O-])Cc2c(c(F)cc3[nH]ccc23)Oc2ccc(F)c(c2)-c2nc(c[nH]2)C(C)(c2cccc(CCC(=O)O)c2)CCCO1 (stereo not drawn) [Compound 47, 3-[3-(22,28-Difluoro-6,11,11-trimethyl-13-oxo-10,24-dioxa-13M-thia-3,19,30-triazapentacyclo[23.3.1.12,5.015,23.016,20]triaconta-1(29),2,4,15,17,20,22,25,27-nonaen-6-yl)phenyl]propanoic Acid] | C (a value greater than 10 °C and less than or equal to 25 °C is marked “C”) | B (a value between 12-20 is marked “B”)
